Experimental data taken from article PMC10675597, “Design, Synthesis, and Antisickling Investigation of a Thiazolidine Prodrug of TD-7 That Prolongs the Duration of Action of Antisickling Aromatic Aldehyde” (Pharmaceutics, 2023).

Legend:
sickling = test system: sickling; design: method as in PMID 30289405; conditions: cited from earlier work
[1] = biological target: T1, Hb in human normal whole blood (Homo sapiens, UniProt P69905); assay: In-vitro time-dependent Hb modification (Hb adduct formation), cation-exchange HPLC; type: cell-based; conditions: 2 mM; for %Hb Modification (Hb Adduct): normal whole blood 30% hematocrit
T1 construct: normal whole blood (AA) was collected from adult donors; from tissue; host or cells: normal (AA) human whole blood from adult donors, 30% hematocrit
T1 sequence (P69905 2-142 limits assumed): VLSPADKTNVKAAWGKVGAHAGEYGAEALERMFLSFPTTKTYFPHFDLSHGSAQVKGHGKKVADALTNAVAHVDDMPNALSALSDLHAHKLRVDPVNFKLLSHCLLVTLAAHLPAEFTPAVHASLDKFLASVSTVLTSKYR
T1 sequence (P68871 2-147 partner limits assumed): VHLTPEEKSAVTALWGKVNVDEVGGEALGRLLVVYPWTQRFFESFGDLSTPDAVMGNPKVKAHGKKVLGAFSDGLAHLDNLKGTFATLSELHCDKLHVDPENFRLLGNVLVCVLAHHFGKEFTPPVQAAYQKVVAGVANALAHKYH
Protocol: Pro-7 and the control TD-7 were used to conduct time-dependent Hb modification (Hb adduct formation) studies using normal whole blood as previously reported. A 200 mM stock solution of each compound was made with DMSO. In a 96-well 1.2 mL polypropylene deep-well plate (Thermo Scientific, Hampshire, UK), 2.0 mM concentration of each compound was added to 600 μL of whole blood (30% hematocrit), which was then incubated at 37 °C for 24 h with shaking (at 140 rpm). A control sample was supplemented only with an equivalent volume of DMSO. At different time points (0–24 h), 50 μL aliquots of this mixture were withdrawn from each well using a multichannel pipette and added to respective tubes containing 50 μL of sodium cyanoborohydride (NaBH3CN) and sodium borohydride (NaBH4) mixture (1:1 v/v 50 mM stock) to terminate the Schiff-base reaction, fix the Schiff-base Hb adducts and reduce the free reactive aldehyde. After mixing, the tubes were stored immediately at −80 °C until ready for analysis using cation-exchange HPLC (Hitachi D-7000 Series, Hitachi Instruments, Inc. San Jose, CA, USA) for Hb-compound adduct formation. The observed Hb adducts in %Hb modification were plotted as a function of time (h).
(§1) Human normal whole blood was used to assess the degree of Hb modification and Hb oxygen affinity (P50 shift), while sickle blood was used to investigate RBC sickling inhibition. Pro-7 and the positive control TD-7 were incubated with normal whole blood suspensions. […] For the sickling inhibition study, Pro-7 and the positive control TD-7 were incubated with SS blood suspensions under hypoxic conditions (2.5% O2/97.5% N2), and aliquot blood samples were drawn at three time points (1, 3 and 6 h) and used for assessing RBC morphology. The results summarized in Table 1 and Figure 4A–C show time-dependent effects for all three pharmacodynamic activities. […] Even at the end of the 24-h experiment, Pro-7 activity was still increasing.

[2] = In-vitro stability in different pH buffers (aldehyde peak absorbance at 349 nm); type: physicochemical; conditions: for Stability (absorbance of aldehyde peak at 349 nm): 1 mM, 37 °C
Protocol: The stability of Pro-7 and the control TD-7 in different pH buffers (PBS buffer at pH 7.4, KCl·HCl buffer at pH 2.0, and Tris buffer at pH 8.0) was evaluated over time as previously reported. The ionic strength of all buffers was kept constant at 150 mM. A 200 mM stock solution of each compound was prepared using anhydrous DMSO. 1 mM solutions of each of the test compounds TD-7 and Pro-7 were prepared in duplicate for each of the three different pH buffers. […]
An in-vitro time-dependent (1–96 h) stability study of Pro-7 was conducted to inform the formulation of the prodrug. The study was conducted at three different pHs: 2.0, 7.4 and 8.0, which mimic stomach, blood and intestinal pH conditions, respectively. The presence of TD-7 or the rate of appearance of TD-7 upon dissociation of Pro-7 was monitored at 349 nm spectrophotometrically.

[3] = biological target: T1, Hb in human normal whole blood; assay: In-vitro time-dependent oxygen equilibrium study (P50 shift); type: cell-based; conditions: 2 mM; for %Hb O2 Affinity (P50 Shift): normal whole blood 30% hematocrit
Protocol: An oxygen equilibrium curve study was conducted in a time-dependent manner to determine the effect and duration of Pro-7 on Hb affinity for oxygen (P50 shift) following standard procedure. Pro-7, along with the controls TD-7 and DMSO were used for the studies with normal whole blood sample (30% hematocrit). Each compound was incubated with the blood at a final concentration of 2 mM, and aliquot samples were taken at 1, 3, 6, 12 and 24 h and further incubated in IL 237 tonometer (Instrumentation Laboratories, Inc., Lexington, MA, USA) for 10 min at 37 °C, and allowed to equilibrate at oxygen tensions 6, 20, and 40 mmHg. The samples were then aspirated into a Radiometer ABL 800 Automated Blood Gas Analyzer (Copenhagen, Denmark ) to determine the pH, partial pressure of CO2 (pCO2), partial pressure of oxygen (pO2), and Hb oxygen saturation values (SO2). The measured values of pO2 (mmHg) and SO2 at each pO2 value were then subjected to a non-linear regression analysis using the program Scientist (Micromath, Salt Lake City, UT, USA) to estimate P50 as a measure of Hb oxygen affinity as previously reported.
as §1

[4] = test system: SS cells (homozygous sickle cell blood); assay: In-vitro time-dependent RBC sickling inhibition under hypoxia; type: cell-based, human; conditions: 2 mM; for inhibition at 2000 µM: Homo sapiens, SS cells 20% hematocrit, hypoxia (4% oxygen/96% nitrogen)
Protocol: Red blood cell sickling inhibition studies with Pro-7 and the control TD-7 was conducted using previously reported procedure. Blood suspensions from subjects with homozygous SCD (hematocrit 20%) were incubated under air in the absence or presence of test compounds at 37 °C for 1 h to ensure that binding has attained equilibrium. […] Aliquot samples were fixed with 2% glutaraldehyde solution without exposure to air, and then subjected to microscopic morphological analysis.
Human normal whole blood was used to assess the degree of Hb modification and Hb oxygen affinity (P50 shift), while sickle blood was used to investigate RBC sickling inhibition. […] The results summarized in Table 1 and Figure 4A–C show time-dependent effects for all three pharmacodynamic activities. […] Even at the end of the 24-h experiment, Pro-7 activity was still increasing.

COc1ccc(OCc2cccc(CO)n2)c(C=O)c1 [TD-7, 2-((6-(hydroxymethyl)pyridin-2-yl)methoxy)-5-methoxybenzaldehyde]
sickling inhibition potency over vanillin (sickling): several fold | %Hb Modification (Hb Adduct) ([1]; 0 h): 0.00 ± 0.00% | time of peak effect, Hb modification ([1]; normal whole blood): 12 h | %Hb Modification (Hb Adduct) ([1]; 1 h): 25.20 ± 1.20% | %Hb Modification (Hb Adduct) ([1]; 2 h): 23.40 ± 3.50% | %Hb Modification (Hb Adduct) ([1]; 4 h): 41.70 ± 4.30% | %Hb Modification (Hb Adduct) ([1]; 8 h): 47.30 ± 4.70% | %Hb Modification (Hb Adduct) ([1]; 12 h): 48.30 ± 0.50% | %Hb Modification (Hb Adduct) ([1]; 24 h): 43.30 ± 1.90% | Stability (absorbance of aldehyde peak at 349 nm) ([2]; pH 2.0, 0 hr): 3.23 ± 0.08 | stability in buffer (in words) ([2]; pH 2.0, 7.4 and 8.0, 96 h experiment): showed stability at all three pHs | Stability (absorbance of aldehyde peak at 349 nm) ([2]; pH 2.0, 1 hr): 3.02 ± 0.00 | Stability (absorbance of aldehyde peak at 349 nm) ([2]; pH 2.0, 2 hr): 3.03 ± 0.04 | Stability (absorbance of aldehyde peak at 349 nm) ([2]; pH 2.0, 3 hr): 2.97 ± 0.04 | Stability (absorbance of aldehyde peak at 349 nm) ([2]; pH 2.0, 6 hr): 2.98 ± 0.01 | Stability (absorbance of aldehyde peak at 349 nm) ([2]; pH 2.0, 24 hr): 2.93 ± 0.01 | Stability (absorbance of aldehyde peak at 349 nm) ([2]; pH 7.4, 0 hr): 3.05 ± 0.10 | Stability (absorbance of aldehyde peak at 349 nm) ([2]; pH 7.4, 1 hr): 2.97 ± 0.01 | Stability (absorbance of aldehyde peak at 349 nm) ([2]; pH 7.4, 2 hr): 2.95 ± 0.03 | Stability (absorbance of aldehyde peak at 349 nm) ([2]; pH 7.4, 3 hr): 3.09 ± 0.06 | Stability (absorbance of aldehyde peak at 349 nm) ([2]; pH 7.4, 6 hr): 2.92 ± 0.02 | Stability (absorbance of aldehyde peak at 349 nm) ([2]; pH 7.4, 24 hr): 2.98 ± 0.07 | Stability (absorbance of aldehyde peak at 349 nm) ([2]; pH 7.4, 28 hr): 2.90 ± 0.04 | Stability (absorbance of aldehyde peak at 349 nm) ([2]; pH 7.4, 48 hr): 3.00 ± 0.05 | Stability (absorbance of aldehyde peak at 349 nm) ([2]; pH 7.4, 56 hr): 2.98 ± 0.08 | Stability (absorbance of aldehyde peak at 349 nm) ([2]; pH 7.4, 72 hr): 2.92 ± 0.05 | Stability (absorbance of aldehyde peak at 349 nm) ([2]; pH 7.4, 96 hr): 2.95 ± 0.03 | Stability (absorbance of aldehyde peak at 349 nm) ([2]; pH 8.0, 0 hr): 1.82 ± 0.05 | Stability (absorbance of aldehyde peak at 349 nm) ([2]; pH 8.0, 1 hr): 1.79 ± 0.00 | Stability (absorbance of aldehyde peak at 349 nm) ([2]; pH 8.0, 2 hr): 1.73 ± 0.01 | Stability (absorbance of aldehyde peak at 349 nm) ([2]; pH 8.0, 3 hr): 1.73 ± 0.01 | Stability (absorbance of aldehyde peak at 349 nm) ([2]; pH 8.0, 6 hr): 1.71 ± 0.01 | Stability (absorbance of aldehyde peak at 349 nm) ([2]; pH 8.0, 24 hr): 1.73 ± 0.02 | Stability (absorbance of aldehyde peak at 349 nm) ([2]; pH 8.0, 28 hr): 1.70 ± 0.02 | Stability (absorbance of aldehyde peak at 349 nm) ([2]; pH 8.0, 48 hr): 1.68 ± 0.03 | Stability (absorbance of aldehyde peak at 349 nm) ([2]; pH 8.0, 72 hr): 1.73 ± 0.03 | Stability (absorbance of aldehyde peak at 349 nm) ([2]; pH 8.0, 96 hr): 1.68 ± 0.04 | time of peak effect, Hb oxygen affinity ([3]; normal whole blood): peaked quickly at the first hour | %Hb O2 Affinity (P50 Shift) ([3]; 1 h): 69.26% | %Hb O2 Affinity (P50 Shift) ([3]; 3 h): 67.42% | %Hb O2 Affinity (P50 Shift) ([3]; 6 h): 49.06% | %Hb O2 Affinity (P50 Shift) ([3]; 12 h): 49.58% | %Hb O2 Affinity (P50 Shift) ([3]; 24 h): 48.56% | time of peak effect, RBC sickling inhibition ([4]; SS blood, hypoxia): peaked quickly at the first hour | inhibition at 2000 µM ([4]; 1 h): 76.3% | inhibition at 2000 µM ([4]; 3 h): 59.6% | inhibition at 2000 µM ([4]; 6 h): 54%
